In one test the target is T1, human GcgR (Homo sapiens, UniProt P47871).
T1 construct: expressed in transfected cells; crude membranes
Put plainly: [125I]-Glucagon binding, SPA with WGA beads, 0.1% bacitracin. The settings on record: geometric mean, read-out: hGcgR Ki. A digest of the protocol: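 SPA competition binding with WGA beads on crude membranes from HEK293 cells stably expressing hGcgR. Buffer: 25 mM HEPES pH 7.4, 2.5 mM CaCl2, 1 mM MgCl2, 0.1% bacitracin, 0.003% Tween-20; 10-point 3-fold dilutions, NSB with 1 μM Gcg.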

In a further test the target is T2, human GIPR (Homo sapiens, UniProt P48546).
T2 construct: expressed in transfected cells; crude membranes
T2 sequence (P48546 22-466): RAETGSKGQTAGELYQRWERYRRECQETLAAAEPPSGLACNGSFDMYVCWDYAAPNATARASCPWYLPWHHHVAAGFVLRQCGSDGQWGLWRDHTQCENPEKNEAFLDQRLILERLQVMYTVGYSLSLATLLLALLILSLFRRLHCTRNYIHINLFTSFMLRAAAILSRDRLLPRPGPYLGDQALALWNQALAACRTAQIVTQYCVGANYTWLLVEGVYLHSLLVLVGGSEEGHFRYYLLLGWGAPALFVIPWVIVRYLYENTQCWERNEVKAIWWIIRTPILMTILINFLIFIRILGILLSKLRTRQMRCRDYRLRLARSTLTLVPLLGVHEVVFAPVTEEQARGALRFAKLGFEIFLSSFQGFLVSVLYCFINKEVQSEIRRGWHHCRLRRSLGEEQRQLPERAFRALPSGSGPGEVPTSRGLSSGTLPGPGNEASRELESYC
Description: [125I]-GIP binding, SPA with WGA beads, 0.1% bacitracin. The conditions noted are these: geometric mean, read-out: hGIPR Ki. A digest of the protocol:
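Ki values are geometric means (SEM, n independent days), derived from four-parameter nonlinear regression of IC50. Membranes came from hGIPR-expressing CHO cells.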

A further test concerns the target T3, human GLP-1R (Homo sapiens, UniProt P43220).
T3 construct: expressed in transfected cells; crude membranes
Put plainly: [125I]-GLP-1 binding, SPA with WGA beads, 0.1% bacitracin. The conditions noted are these: geometric mean, read-out: hGLP1R Ki. A digest of the protocol: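 Binding buffer was 25 mM HEPES pH 7.4 with 2.5 mM CaCl2, 1 mM MgCl2, 0.1% (w/v) bacitracin, 0.003% Tween-20 and EDTA-free protease inhibitors. Four-parameter regression gave IC50, converted to Ki (geometric mean, SEM, n independent days).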

The record followed here is patent US12723063B2, “GIPR-agonist compounds” (Eli Lilly and Company, priority 2019, dated 2026).

*1 amine or outer side, *2 acyl side, *3 side chain or, on linkers, in order; H or OH if unused. Where a SMILES comes first, the peptide text is derived from it. Side-chain parts run from the residue outwards. [ ]: non-standard residue; d: D form. The star is where a group is joined. C20 diacid = O=C(O)CCCCCCCCCCCCCCCCCCC(=O)*; γGlu = O=C(O)[C@H](CCC(=O)[*:2])N[*:1]; 4Pal = N[C@@H](Cc1ccncc1)C(=O)O; αMeL = CC(C)C[C@](C)(N)C(=O)O; Iva = CC[C@](C)(N)C(=O)O; Orn = NCCC[C@H](N)C(=O)O; AEEA = NCCOCCOCC(=O)O; Aib = CC(C)(N)C(=O)O

A word on the Ki: it is a dissociation constant, usually derived from enzyme kinetics or from competition with a known ligand.

T1 sequence (P47871 26-477): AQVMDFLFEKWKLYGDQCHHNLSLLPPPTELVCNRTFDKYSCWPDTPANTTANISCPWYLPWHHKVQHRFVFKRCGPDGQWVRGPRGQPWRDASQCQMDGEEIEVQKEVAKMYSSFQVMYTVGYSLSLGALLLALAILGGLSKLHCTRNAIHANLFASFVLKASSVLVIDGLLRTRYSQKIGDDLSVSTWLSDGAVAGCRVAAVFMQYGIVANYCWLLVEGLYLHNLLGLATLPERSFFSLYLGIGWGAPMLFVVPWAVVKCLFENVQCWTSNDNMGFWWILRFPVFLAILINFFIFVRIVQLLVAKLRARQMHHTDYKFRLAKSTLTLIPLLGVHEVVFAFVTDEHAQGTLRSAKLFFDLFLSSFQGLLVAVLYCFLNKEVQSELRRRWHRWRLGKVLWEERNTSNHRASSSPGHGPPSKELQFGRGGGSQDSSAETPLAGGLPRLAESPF
T3 sequence (P43220 24-463): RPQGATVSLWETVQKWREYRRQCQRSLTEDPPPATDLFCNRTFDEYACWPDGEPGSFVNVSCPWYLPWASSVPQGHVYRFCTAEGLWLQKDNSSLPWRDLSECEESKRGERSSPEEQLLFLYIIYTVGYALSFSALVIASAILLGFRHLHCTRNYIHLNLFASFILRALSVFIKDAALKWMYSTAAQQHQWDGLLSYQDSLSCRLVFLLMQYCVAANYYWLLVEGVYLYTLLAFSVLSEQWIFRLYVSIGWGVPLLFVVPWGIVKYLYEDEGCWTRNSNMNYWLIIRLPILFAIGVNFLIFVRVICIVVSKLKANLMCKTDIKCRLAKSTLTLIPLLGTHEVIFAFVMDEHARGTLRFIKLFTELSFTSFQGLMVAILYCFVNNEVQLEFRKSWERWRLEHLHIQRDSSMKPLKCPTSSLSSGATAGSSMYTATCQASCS

`CC[C@H](C)[C@H](NC(=O)[C@H](CO)NC(=O)[C@H](Cc1ccc(O)cc1)NC(=O)[C@H](CC(=O)O)NC(=O)[C@H](CO)NC(=O)[C@@H](NC(=O)[C@](C)(CC)NC(=O)[C@@H](NC(=O)CNC(=O)[C@H](CCC(=O)O)NC(=O)C(C)(C)NC(=O)[C@@H](N)Cc1ccc(O)cc1)[C@@H](C)O)[C@@H](C)CC)C(=O)N[C@@](C)(CC(C)C)C(=O)N[C@@H](CC(C)C)C(=O)N[C@@H](CC(=O)O)C(=O)N[C@@H](CCCN)C(=O)N[C@@H](CCCCNC(=O)COCCOCCNC(=O)COCCOCCNC(=O)CC[C@H](NC(=O)CCCCCCCCCCCCCCCCCCC(=O)O)C(=O)O)C(=O)N[C@@H](Cc1c[nH]cn1)C(=O)N[C@@H](CCC(N)=O)C(=O)NC(C)(C)C(=O)N[C@@H](CC(=O)O)C(=O)N[C@@H](Cc1ccccc1)C(=O)N[C@H](C(=O)N[C@@H](CCC(=O)O)C(=O)N[C@@H](Cc1ccncc1)C(=O)N[C@@H](CC(C)C)C(=O)N[C@@H](CC(C)C)C(=O)N[C@@H](CCC(=O)O)C(=O)N[C@H](C(=O)NCC(=O)N1CCC[C@H]1C(=O)N[C@@H](CO)C(=O)N[C@@H](CO)C(=O)NCC(=O)N[C@@H](C)C(=O)N1CCC[C@H]1C(=O)N1CCC[C@H]1C(=O)N1CCC[C@H]1C(=O)N[C@@H](CO)C(N)=O)[C@@H](C)O)C(C)C` [Example 77] (H-Y[Aib]EGT[Iva]ISDYSI[αMeL]LD[Orn]K([AEEA-AEEA-γGlu-C20 diacid])HQ[Aib]DFVE[4Pal]LLETGPSSGAPPPS-NH2): the figures for the Ki at human GcgR, on human GIPR and on human GLP-1R were greater than 958 nM, 0.0841 nM and greater than 905 nM, respectively.
Taken in the same sequence, the figures for `CC[C@H](C)[C@H](NC(=O)[C@H](Cc1ccccc1)NC(=O)[C@@H](NC(=O)CNC(=O)[C@H](CCC(=O)O)NC(=O)C(C)(C)NC(=O)[C@@H](N)Cc1ccc(O)cc1)[C@@H](C)O)C(=O)N[C@@H](CO)C(=O)N[C@@H](CC(=O)O)C(=O)N[C@@H](Cc1ccc(O)cc1)C(=O)N[C@@H](CO)C(=O)N[C@H](C(=O)N[C@@](C)(CC(C)C)C(=O)N[C@@H](CC(C)C)C(=O)N[C@@H](CC(=O)O)C(=O)N[C@@H](CCCCN)C(=O)N[C@@H](CCCCNC(=O)COCCOCCNC(=O)COCCOCCNC(=O)CC[C@H](NC(=O)CCCCCCCCCCCCCCCCCCC(=O)O)C(=O)O)C(=O)N[C@@H](Cc1c[nH]cn1)C(=O)N[C@@H](CCC(N)=O)C(=O)NC(C)(C)C(=O)N[C@@H](CC(=O)O)C(=O)N[C@@H](Cc1ccccc1)C(=O)N[C@H](C(=O)N[C@@H](CCC(=O)O)C(=O)N[C@@H](Cc1ccncc1)C(=O)N[C@@H](CC(C)C)C(=O)N[C@@H](CC(C)C)C(=O)N[C@@H](C)C(=O)N[C@@H](C)C(=O)NCC(=O)N1CCC[C@H]1C(=O)N[C@@H](CO)C(=O)N[C@@H](CO)C(=O)NCC(=O)N[C@@H](C)C(=O)N1CCC[C@H]1C(=O)N1CCC[C@H]1C(=O)N1CCC[C@H]1C(=O)N[C@@H](CO)C(N)=O)C(C)C)[C@@H](C)CC` [Example 78] were 505 nM, 0.0236 nM and 394 nM.
The corresponding values for `CC[C@H](C)[C@H](NC(=O)[C@H](Cc1ccccc1)NC(=O)[C@@H](NC(=O)CNC(=O)[C@H](CCC(=O)O)NC(=O)C(C)(C)NC(=O)[C@@H](N)Cc1ccc(O)cc1)[C@@H](C)O)C(=O)N[C@@H](CO)C(=O)N[C@@H](CC(=O)O)C(=O)N[C@@H](Cc1ccc(O)cc1)C(=O)N[C@@H](CO)C(=O)N[C@H](C(=O)N[C@@](C)(CC(C)C)C(=O)N[C@@H](CC(C)C)C(=O)N[C@@H](CC(=O)O)C(=O)N[C@@H](CCCCN)C(=O)N[C@@H](CCCCNC(=O)COCCOCCNC(=O)COCCOCCNC(=O)CC[C@H](NC(=O)CCCCCCCCCCCCCCCCCCC(=O)O)C(=O)O)C(=O)N[C@@H](Cc1c[nH]cn1)C(=O)N[C@@H](CCC(N)=O)C(=O)NC(C)(C)C(=O)N[C@@H](CC(=O)O)C(=O)N[C@@H](Cc1ccccc1)C(=O)N[C@H](C(=O)N[C@@H](CCC(=O)O)C(=O)N[C@@H](Cc1ccncc1)C(=O)N[C@@H](CC(C)C)C(=O)N[C@@H](CC(C)C)C(=O)N[C@@H](C)C(=O)N[C@@H](CCC(N)=O)C(=O)NCC(=O)N1CCC[C@H]1C(=O)N[C@@H](CO)C(=O)N[C@@H](CO)C(=O)NCC(=O)N[C@@H](C)C(=O)N1CCC[C@H]1C(=O)N1CCC[C@H]1C(=O)N1CCC[C@H]1C(=O)N[C@@H](CO)C(N)=O)C(C)C)[C@@H](C)CC` [Example 79] (H-Y[Aib]EGTFISDYSI[αMeL]LDKK([AEEA-AEEA-γGlu-C20 diacid])HQ[Aib]DFVE[4Pal]LLAQGPSSGAPPPS-NH2) are 888 nM, 0.0229 nM and 486 nM.
Turning to `CC[C@H](C)[C@H](NC(=O)[C@H](Cc1ccccc1)NC(=O)[C@@H](NC(=O)CNC(=O)[C@H](CCC(=O)O)NC(=O)C(C)(C)NC(=O)[C@@H](N)Cc1ccc(O)cc1)[C@@H](C)O)C(=O)N[C@@H](CO)C(=O)N[C@@H](CC(=O)O)C(=O)N[C@@H](Cc1ccc(O)cc1)C(=O)N[C@@H](CO)C(=O)N[C@H](C(=O)N[C@@](C)(CC(C)C)C(=O)N[C@@H](CC(C)C)C(=O)N[C@@H](CC(=O)O)C(=O)N[C@@H](CCCN)C(=O)N[C@@H](CCCCNC(=O)COCCOCCNC(=O)COCCOCCNC(=O)CC[C@H](NC(=O)CCCCCCCCCCCCCCCCCCC(=O)O)C(=O)O)C(=O)N[C@@H](Cc1c[nH]cn1)C(=O)N[C@@H](CCC(N)=O)C(=O)NC(C)(C)C(=O)N[C@@H](CC(=O)O)C(=O)N[C@@H](Cc1ccccc1)C(=O)N[C@H](C(=O)N[C@@H](CCC(=O)O)C(=O)N[C@@H](Cc1ccncc1)C(=O)N[C@@H](CC(C)C)C(=O)N[C@@H](CC(C)C)C(=O)N[C@@H](CCC(=O)O)C(=O)N[C@H](C(=O)NCC(=O)N1CCC[C@H]1C(=O)N[C@@H](CO)C(=O)N[C@@H](CO)C(=O)NCC(=O)N[C@@H](C)C(=O)N1CCC[C@H]1C(=O)N1CCC[C@H]1C(=O)N1CCC[C@H]1C(=O)N[C@@H](CO)C(N)=O)[C@@H](C)O)C(C)C)[C@@H](C)CC` [Example 80] (H-Y[Aib]EGTFISDYSI[αMeL]LD[Orn]K([AEEA-AEEA-γGlu-C20 diacid])HQ[Aib]DFVE[4Pal]LLETGPSSGAPPPS-NH2), the Ki at human GcgR was greater than 958 nM; on human GIPR, 0.0828 nM; at human GLP-1R it was greater than 906 nM.
Taken in the same sequence, the figures for `CC[C@H](C)[C@H](NC(=O)[C@H](Cc1ccccc1)NC(=O)[C@@H](NC(=O)CNC(=O)[C@H](CCC(=O)O)NC(=O)C(C)(C)NC(=O)[C@@H](N)Cc1ccc(O)cc1)[C@@H](C)O)C(=O)N[C@@H](CO)C(=O)N[C@@H](CC(=O)O)C(=O)N[C@@H](Cc1ccc(O)cc1)C(=O)N[C@@H](CO)C(=O)N[C@H](C(=O)N[C@@](C)(CC(C)C)C(=O)N[C@@H](CC(C)C)C(=O)N[C@@H](CC(=O)O)C(=O)N[C@@H](CCCN)C(=O)N[C@@H](CCCCNC(=O)COCCOCCNC(=O)COCCOCCNC(=O)CC[C@H](NC(=O)CCCCCCCCCCCCCCCCCCC(=O)O)C(=O)O)C(=O)N[C@@H](Cc1c[nH]cn1)C(=O)N[C@@H](CCC(N)=O)C(=O)NC(C)(C)C(=O)N[C@@H](CC(=O)O)C(=O)N[C@@H](Cc1ccccc1)C(=O)N[C@H](C(=O)N[C@@H](CCC(=O)O)C(=O)N[C@@H](Cc1ccncc1)C(=O)N[C@@H](CC(C)C)C(=O)N[C@@H](CC(C)C)C(=O)N[C@@H](CCC(=O)O)C(=O)N[C@@H](CCC(N)=O)C(=O)NCC(=O)N1CCC[C@H]1C(=O)N[C@@H](CO)C(=O)N[C@@H](CO)C(=O)NCC(=O)N[C@@H](C)C(=O)N1CCC[C@H]1C(=O)N1CCC[C@H]1C(=O)N1CCC[C@H]1C(=O)N[C@@H](CO)C(N)=O)C(C)C)[C@@H](C)CC` [Example 81] (H-Y[Aib]EGTFISDYSI[αMeL]LD[Orn]K([AEEA-AEEA-γGlu-C20 diacid])HQ[Aib]DFVE[4Pal]LLEQGPSSGAPPPS-NH2) were 699 nM, 0.0374 nM and 714 nM.
Taken in the same sequence, the figures for `CC[C@H](C)[C@H](NC(=O)[C@H](Cc1ccccc1)NC(=O)[C@@H](NC(=O)CNC(=O)[C@H](CCC(=O)O)NC(=O)C(C)(C)NC(=O)[C@@H](N)Cc1ccc(O)cc1)[C@@H](C)O)C(=O)N[C@@H](CO)C(=O)N[C@@H](CC(=O)O)C(=O)N[C@@H](Cc1ccc(O)cc1)C(=O)N[C@@H](CO)C(=O)N[C@H](C(=O)N[C@@](C)(CC(C)C)C(=O)N[C@@H](CC(C)C)C(=O)N[C@@H](CC(=O)O)C(=O)N[C@@H](CCCN)C(=O)N[C@@H](CCCCNC(=O)COCCOCCNC(=O)COCCOCCNC(=O)CC[C@H](NC(=O)CCCCCCCCCCCCCCCCCCC(=O)O)C(=O)O)C(=O)N[C@@H](Cc1c[nH]cn1)C(=O)N[C@@H](CCC(N)=O)C(=O)NC(C)(C)C(=O)N[C@@H](CC(=O)O)C(=O)N[C@@H](Cc1ccccc1)C(=O)N[C@H](C(=O)N[C@@H](CCC(=O)O)C(=O)N[C@@H](Cc1ccncc1)C(=O)N[C@@H](CC(C)C)C(=O)N[C@@H](CC(C)C)C(=O)N[C@@H](CCC(=O)O)C(=O)NCC(=O)NCC(=O)N1CCC[C@H]1C(=O)N[C@@H](CO)C(=O)N[C@@H](CO)C(=O)NCC(=O)N[C@@H](C)C(=O)N1CCC[C@H]1C(=O)N1CCC[C@H]1C(=O)N1CCC[C@H]1C(=O)N[C@@H](CO)C(N)=O)C(C)C)[C@@H](C)CC` [Example 82] (H-Y[Aib]EGTFISDYSI[αMeL]LD[Orn]K([AEEA-AEEA-γGlu-C20 diacid])HQ[Aib]DFVE[4Pal]LLEGGPSSGAPPPS-NH2) were 305 nM, 0.0617 nM and 388 nM.
